One molecule from patent US20250281665A1, “BIONIC DRESSING-FORMING COMPOSITION, BIONIC DRESSING, AND METHOD OF FORMING THE BIONIC DRESSING” (THE HONG KONG POLYTECHNIC UNIVERSITY, priority 2024, published 2025) can be followed below.

The data set deals with 3T3 cells. Description: Biocompatibility evaluation (live/dead, CCK-8, extract medium). It is filed as cell-based. As for the experimental part: The tests in this example were conducted under the following conditions/standards. • 5. Mechanical property test: The mechanical properties of bionic excipients were based on the ASTM F2458-05 standard. GelMA, PGLADMA and double-layer GelMA/PGLADMA samples with a size of 20×5 mm were prepared and stretched at a rate of 1 mm/min using a two-arm mechanical tensile instrument at room temperature, and the mechanical properties were calculated, where tensile elastic modulus=stress/strain. For example, reference can be made to the test method in Theocharidis G, Yuk H, Roh H, et al. A strain-programmed patch for the healing of diabetic wounds [J]. Nature biomedical engineering, 2022, 6 (10): 1118-1133. • 6. Hemostatic property: For the hemostatic properties of bionic excipients, for example, reference can be made to Guo Y, Wang Y, Zhao X, et al. Snake extract-laden hemostatic bioadhesive gel cross-linked by visible light [J]. Science Advances, 2021, 7 (29): cabf9635. • 7. […] After 1, 2, and 3 days of incubation, cell viability and cell proliferation were evaluated using a live/dead cell detection kit (Thermo Fisher, Hong Kong) and a CCK-8 kit (Sigma-Aldrich, Hong Kong), respectively. […]

Consider `Oc1cc(Cl)ccc1Oc1ccc(Cl)cc1Cl` [TCS, triclosan], for which the toxicity to cells result by setting is: (TCS concentration below 5%) “no toxicity”; (TCS concentration of around 10%) “only slightly toxic”.
